Reference: ChEMBL document CHEMBL1158635, “Antitrypanosomal alkaloids from Polyalthia suaveolens (Annonaceae): their effects on three selected glycolytic enzymes of Trypanosoma brucei” (Bioorg Med Chem Lett, 2010)
Each block holds one compound with its values, some of them ahead of it. Calls of active or inactive are those of the source. No cut-off for these calls is given here.

Experiments:
MRC5 = test: Cytotoxicity against human MRC5 cells after 72 hrs by Alamar blue staining; format: cell-based; conditions: mrc5, 72 h
[1] = molecular target: T1, ATP-dependent 6-phosphofructokinase (Trypanosoma brucei) (UniProt O15648); test: Ratio of Ki/Km for Trypanosoma brucei PFK expressed in Escherichia coli using fructose-6-phosphate by spectrophotometry analysis
T1 sequence (whole entry): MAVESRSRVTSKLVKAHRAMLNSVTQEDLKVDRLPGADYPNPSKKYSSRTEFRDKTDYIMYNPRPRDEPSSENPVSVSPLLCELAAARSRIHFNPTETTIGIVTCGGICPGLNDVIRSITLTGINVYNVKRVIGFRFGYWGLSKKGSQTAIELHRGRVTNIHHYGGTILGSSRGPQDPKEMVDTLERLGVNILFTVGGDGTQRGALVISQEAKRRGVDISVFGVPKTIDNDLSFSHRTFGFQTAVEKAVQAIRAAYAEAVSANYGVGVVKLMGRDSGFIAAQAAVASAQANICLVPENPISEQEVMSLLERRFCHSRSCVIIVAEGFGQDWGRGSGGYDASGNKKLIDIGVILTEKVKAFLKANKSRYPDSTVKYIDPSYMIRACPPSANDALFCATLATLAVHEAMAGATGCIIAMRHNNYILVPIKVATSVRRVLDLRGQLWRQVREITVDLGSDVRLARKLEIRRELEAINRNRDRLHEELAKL

[2] = molecular target: T2, ATP-dependent 6-phosphofructokinase (Trypanosoma brucei, UniProt O15648); test: Competitive reversible inhibition of Trypanosoma brucei PFK expressed in Escherichia coli using fructose-6-phosphate by spectrophotometry analysis
T2 sequence (O15648 whole entry): T1 sequence (whole entry)

[3] = molecular target: T3, Fructose-bisphosphate aldolase A (Oryctolagus cuniculus, UniProt P00883); test: Inhibition of rabbit muscle aldolase
T3 sequence (P00883 whole entry): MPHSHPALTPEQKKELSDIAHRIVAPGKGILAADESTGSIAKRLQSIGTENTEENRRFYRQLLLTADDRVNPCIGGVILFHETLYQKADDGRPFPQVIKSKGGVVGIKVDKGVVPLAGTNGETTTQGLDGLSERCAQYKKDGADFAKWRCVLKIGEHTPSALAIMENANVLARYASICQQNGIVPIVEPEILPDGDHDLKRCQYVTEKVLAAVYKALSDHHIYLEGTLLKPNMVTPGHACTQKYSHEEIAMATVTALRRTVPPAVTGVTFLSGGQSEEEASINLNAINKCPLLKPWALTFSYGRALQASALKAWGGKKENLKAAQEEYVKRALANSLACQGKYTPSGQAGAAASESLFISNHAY

[4] = test system: Trypanosoma brucei brucei; test: Antitrypanosomal activity against Trypanosoma brucei brucei 427 bloodstream form after 72 hrs by LILIT method; format: functional; conditions: for EC50: Trypanosoma brucei, 427, 72 h, read-out: ED50 (the source's name)
[5] = molecular target: T4, ATP-dependent 6-phosphofructokinase, muscle type (Oryctolagus cuniculus) (UniProt P00511); test: Inhibition of rabbit muscle PFK at 500 uM
T4 sequence (whole entry): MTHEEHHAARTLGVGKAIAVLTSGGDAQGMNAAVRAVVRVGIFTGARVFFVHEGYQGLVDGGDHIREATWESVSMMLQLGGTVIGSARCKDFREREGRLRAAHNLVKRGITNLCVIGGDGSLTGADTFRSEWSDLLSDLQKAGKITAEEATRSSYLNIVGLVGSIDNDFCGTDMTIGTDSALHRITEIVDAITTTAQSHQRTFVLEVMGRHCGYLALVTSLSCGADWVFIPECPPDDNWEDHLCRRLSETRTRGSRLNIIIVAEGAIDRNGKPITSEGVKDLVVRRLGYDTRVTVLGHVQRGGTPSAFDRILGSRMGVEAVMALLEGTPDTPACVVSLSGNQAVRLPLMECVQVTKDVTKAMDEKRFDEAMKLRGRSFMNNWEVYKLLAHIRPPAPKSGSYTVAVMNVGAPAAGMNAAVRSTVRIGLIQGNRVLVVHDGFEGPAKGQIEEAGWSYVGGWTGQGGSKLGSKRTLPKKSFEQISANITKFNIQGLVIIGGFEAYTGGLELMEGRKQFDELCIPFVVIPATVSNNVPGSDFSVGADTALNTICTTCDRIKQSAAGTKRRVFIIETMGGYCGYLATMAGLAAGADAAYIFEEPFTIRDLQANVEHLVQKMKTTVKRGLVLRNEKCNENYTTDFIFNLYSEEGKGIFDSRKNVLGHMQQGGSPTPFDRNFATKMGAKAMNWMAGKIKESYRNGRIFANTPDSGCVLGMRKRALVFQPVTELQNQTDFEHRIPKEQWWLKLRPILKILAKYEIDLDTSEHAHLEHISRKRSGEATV

[6] = Selectivity ratio of IC50 for rabbit muscle aldolase to IC50 for Trypanosoma brucei aldolase; format: tissue-based; conditions: Muscle tissue
[7] = molecular target: T2, ATP-dependent 6-phosphofructokinase; test: Inhibition of Trypanosoma brucei PFK expressed in Escherichia coli
[8] = Inhibition of Trypanosoma brucei GAPDH expressed in Escherichia coli
[9] = molecular target: Glyceraldehyde-3-phosphate dehydrogenase (Oryctolagus cuniculus, UniProt P46406); test: Inhibition of rabbit muscle GAPDH
[10] = Mixed-type reversible inhibition of Trypanosoma brucei GAPDH expressed in Escherichia coli using NAD+ by spectrophotometry analysis
[11] = Inhibition of Trypanosoma brucei aldolase expressed in Escherichia coli
[12] = Mixed-type reversible inhibition of Trypanosoma brucei GAPDH expressed in Escherichia coli at enzyme substrate complex by spectrophotometry analysis
Trypanosoma brucei [13] = test: Inhibition of Trypanosoma brucei aldolase expressed in Escherichia coli at 100 uM
[14] = molecular target: Glyceraldehyde-3-phosphate dehydrogenase (Oryctolagus cuniculus) (UniProt P46406); test: Inhibition of rabbit muscle GAPDH at 3000 uM
[15] = molecular target: T4, ATP-dependent 6-phosphofructokinase, muscle type (Oryctolagus cuniculus); test: Inhibition of rabbit muscle PFK at 170 uM
[16] = molecular target: Glyceraldehyde-3-phosphate dehydrogenase (Oryctolagus cuniculus) (UniProt P46406); test: Inhibition of rabbit muscle GAPDH at 69 uM
[17] = molecular target: T4, ATP-dependent 6-phosphofructokinase, muscle type (Oryctolagus cuniculus); test: Inhibition of rabbit muscle PFK at 690 uM
Trypanosoma brucei [18] = test: Inhibition of Trypanosoma brucei GAPDH expressed in Escherichia coli at 278 uM
[19] = molecular target: T1, ATP-dependent 6-phosphofructokinase (Trypanosoma brucei); test: Inhibition of Trypanosoma brucei PFK expressed in Escherichia coli at 690 uM
[20] = molecular target: T5, Fructose-bisphosphate aldolase A (Oryctolagus cuniculus) (UniProt P00883); test: Inhibition of rabbit muscle aldolase at 280 uM
T5 sequence (whole entry): T3 sequence (P00883 whole entry)

Trypanosoma brucei [21] = test: Inhibition of Trypanosoma brucei aldolase expressed in Escherichia coli at 140 uM
[22] = molecular target: T4, ATP-dependent 6-phosphofructokinase, muscle type (Oryctolagus cuniculus); test: Inhibition of rabbit muscle PFK at 94 uM

Chain of Glyceraldehyde-3-phosphate dehydrogenase (Oryctolagus cuniculus) (P46406 whole entry, looked up): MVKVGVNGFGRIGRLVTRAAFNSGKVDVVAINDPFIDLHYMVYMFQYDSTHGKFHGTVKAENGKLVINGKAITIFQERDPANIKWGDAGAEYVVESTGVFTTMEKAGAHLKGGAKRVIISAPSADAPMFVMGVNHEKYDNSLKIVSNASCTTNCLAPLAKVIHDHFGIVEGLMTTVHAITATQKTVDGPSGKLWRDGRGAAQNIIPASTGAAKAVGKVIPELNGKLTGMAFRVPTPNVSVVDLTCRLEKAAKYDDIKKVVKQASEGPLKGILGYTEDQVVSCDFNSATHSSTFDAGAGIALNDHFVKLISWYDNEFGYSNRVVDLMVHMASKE
Chain of Glyceraldehyde-3-phosphate dehydrogenase (P46406 whole entry): as the sequence (P46406 whole entry, looked up) above

- Ki/Km [1]: 0.05
- Ki [2]: 9 µM
SMILES: CC1(C)C(=O)CC[C@@]2(C)[C@H]1CC[C@]1(C)[C@H]2Cc2cc3ccccc3n21 [POLYSIN]
- Activity (MRC5): Toxic

- IC50 [3]: 270 µM
- EC50 [4]: 54 µM
- inhibition [5]: inactive
- Ratio IC50 [6]: 3
- IC50 [7]: 30 µM
- IC50 [9]: 620 µM
SMILES: CC1(C)[C@H](O)CC[C@]2(C)[C@@H]3C[C@@H]4Nc5ccccc5[C@@H]4[C@]3(C)CC[C@@H]12 [POLYVEOLINE]
- Activity (MRC5): Toxic
- IC50 [8]: 110 µM
- Ki [10]: 18 µM
- IC50 [11]: 80 µM
- Ki [12]: 50 µM

SMILES: Nc1nc(N)nc(Nc2ccc([As]3SCC(CO)S3)cc2)n1 (stereo unspecified) [MELARSOPROL]
- EC50 [4]: 0.00395 µM

- IC50 [3]: 87 µM
- EC50 [4]: 18 µM
- IC50 [7]: 20 µM
- Ki [2]: 10 µM
- inhibition (Trypanosoma brucei [13]): 8%
- inhibition [14]: inactive
- inhibition [15]: 18%
SMILES: CC1(C)C(=O)CC[C@]2(C)C3Cc4cc5ccccc5n4[C@]3(C)CC[C@@H]12 (stereo partly specified)
- IC50 [8]: 1050 µM

- Ki/Km [1]: 0.05
SMILES: CC1(C)C(=O)CC[C@]2(C)[C@H]3Cc4cc5ccccc5n4[C@]3(C)CC[C@@H]12
- Activity (MRC5): Toxic

- inhibition [16]: 10%
- inhibition [17]: 12%
- inhibition (Trypanosoma brucei [18]): 10%
- EC50 [4]: 32 µM
- inhibition [19]: 28%
- inhibition [20]: inactive
- inhibition (Trypanosoma brucei [21]): 11%
SMILES: CC(=O)N1c2ccccc2[C@H]2[C@@H]1C[C@@H]1[C@@]2(C)CC[C@H]2C(C)(C)[C@H](O)CC[C@]12C
- Activity (MRC5): Toxic

- IC50 [3]: 150 µM
- inhibition [22]: 16%
- IC50 [7]: 170 µM
- IC50 [9]: 2050 µM
SMILES: CC(=O)O[C@H]1CC[C@]2(C)[C@H]3Cc4cc5ccccc5n4[C@]3(C)CC[C@H]2C1(C)C
- ED50 [4]: inactive
- Activity (MRC5): Toxic
- IC50 [8]: 110 µM
- IC50 [11]: 0.5 µM
